# Experimental data as given in patent US7795427B2, “Methods for inhibiting osteoclast differentiation, formation, or function and for increasing bone mass” (New York University, priority 2006, dated 2010).
# “Also recorded” adds a separate entry of the source.
# What was measured:
# bone marrow cells = experiment: RANKL-induced osteoclast formation from bone marrow cells (TRAP-positive MNC count); format: cell-based, mouse; conditions: for osteoclast formation: M-CSF and RANKL
# Description: FIG. 1. Effect of DPCPX on osteoclast formation by bone marrow cells. […] After 7 days cells were fixed and stained for TRAP, and the number of TRAP-positive MNCs per well was scored. (Similar results were obtained in three independent experiments). Bone marrow cells were isolated from 5- to 8-wk-old C57BL/6 female mice. Femurs and tibiae were aseptically removed and dissected free of adherent soft tissues. The bone ends were cut, and the marrow cavity was flushed out with medium αMEM from one end of the bone using a sterile 21-gauge needle. The bone marrow suspension was carefully agitated with a plastic Pasteur pipette to obtain a single-cell suspension. The cells were washed twice and resuspended (3.75×10^5 cells/ml) in α MEM containing 10% FBS, and this suspension was added to 24-well plates (500 μl/well). To each of these wells an additional 500 μl of medium containing M-CSF (30 ng/ml) and RANKL (30 ng/ml) without or with various concentrations of DPCPX and N6-CPA were added. Cultures were fed every 3 days by replacing 500 μl of culture medium with an equal quantity of fresh medium and reagents. After incubation for 7 days, wells were prepared for tartrate-resistant acid phosphatase (TRAP) staining. The number of TRAP-positive multinucleated cells (MNCs) containing three or more nuclei was scored. Osteoclast formation was evaluated by quantification of Tartrate-Resistant Acid Phosphatase (TRAP)-positive multinucleated cells (MNCs) using a modification of the method of Burstone. […] TRAP is preferentially expressed at high levels in osteoclasts and is considered, especially in the mouse, to be an osteoclast marker. After incubation, cells on wells were washed in PBS, fixed in 4% paraformaldehyde for 10 min, and stained for acid phosphatase in the presence of 0.3 M sodium tartrate (Sigma-Aldrich). The substrate used was napthol AS-BI phosphate (Sigma-Aldrich). Only those cells that were strongly TRAP-positive (dark red) and have more than 3 nuclei were counted by light microscopy.
# TRAF6 = TRAF6 level in cells under A1 receptor blockade (other studies, data not shown); format: cell-based; conditions: adenosine A1 receptors blocked by DPCPX (data not shown)
# c-Fos mRNA = experiment: RT-PCR of c-Fos mRNA in osteoclast precursors; format: cell-based, mouse; conditions: DPCPX 1 μM, M-CSF and RANKL, 7 days
# Description: (§1) FIG. 7. […] I.D. NO: 21); c-Fos antisense [NT]. I.D. NO: 22); PU.1.- sense [NT]. I.D. NO: 23); PU.1 antisense [NT]. […] I.D. NO: 10).
# [1] = system: ovariectomized C57BL/6 mice; experiment: Bone loss due to ovariectomy (microCT); format: in vivo, mouse; conditions: OVX C57BL/6 mice, DPCPX 50 mg/kg/d oral in water, 5 weeks
# Procedure: FIG. 12. Effects of the A1R Antagonist DPCPX on Bone Loss Due to Ovariectomy. […] Data are expressed as percent change relative to sham-operated vehicle-treated control mice. 6 Week old C57bl/6 female mice received ovariectomy or a sham procedure in which the ovaries were exteriorized but not removed. Mice were sacrificed 5 weeks after the surgical procedure. Mice were treated with either water alone or DPCPX dissolved in water and adjusted, based on the weight of the animals, to a dose of 50 mg/kg/d. Femoral μCT was measured as described (Hildebrand […] new method for the model-independent assessment of thickness in three-dimensional images. J Microsc 1997; 185:67-75) by using a MS-8 (MS-8, GE Healthcare, London, Ontario, Canada) at 18 μm isotropic resolution-scans calibrated by air, water and a mineral standard material phantom/Parker algorithm for digital reconstruction.
# [2] = system: RANKL-induced NF-κB signaling; experiment: RANKL-induced NF-κB signaling in osteoclast precursors (Western blot of cytoplasmic and nuclear fractions); format: cell-based, mouse; set-up: dose or concentration left out as unconfirmed; conditions: M-CSF and RANKL
# PU.1 mRNA = experiment: RT-PCR of PU.1 mRNA in osteoclast precursors; format: cell-based, mouse; conditions: DPCPX 1 μM, M-CSF and RANKL, 7 days
# Description: as §1
# murine splenocytes = experiment: RANKL-induced osteoclast formation by splenocytes (TRAP-positive MNC count); format: cell-based, mouse; conditions: for osteoclast formation: M-CSF and RANKL
# Procedure: FIG. 4. Effect of DPCPX on osteoclast formation by Splenocytes. […] After 7 days cells were fixed and stained for TRAP, and the number of TRAP-positive MNCs per well was scored. (Similar results were obtained in three independent experiments). Splenocytes were isolated from 5- to 8-wk-old C57BL/6 female mice aspreviously described with modification. In brief, spleens were putted on top of 100 μm cell strainer in 50 ml falcon, mashed with plunger and rinsed the released cells through the strainer with 8 ml PBS. The nonadherent cells were layered on top of the lymphocyte separation medium. The cells were spin 1500 rpm for 20 minutes. The macrophages/lymphocyte white band was located about 1 cm below the top of the LSM. The PBS was aspirated until 1 ml above the band then 1 ml was removing to 50 ml Falcon including the band. To this Falcon 19 ml PBS was added and spine 1500 rpm for 15 minutes. PBS was removed and 10 ml αMEM was added. The cells were resuspended (3×10^5 cells/ml) in αMEM containing 10% FBS, and this suspension was added to 24-well plates ([…]) as described above. […] TRAP is preferentially expressed at high levels in osteoclasts and is considered, especially in the mouse, to be an osteoclast marker. After incubation, cells on wells were washed in PBS, fixed in 4% paraformaldehyde for 10 min, and stained for acid phosphatase in the presence of 0.3 M sodium tartrate (Sigma-Aldrich). The substrate used was napthol AS-BI phosphate (Sigma-Aldrich). Only those cells that were strongly TRAP-positive (dark red) and have more than 3 nuclei were counted by light microscopy.
# osteoclast precursors = experiment: Osteoclast formation with DPCPX added at different days of culture; format: cell-based, mouse
# Procedure: FIG. 5. DPCPX Inhibits Osteoclastogenesis by Acting on Osteoclast Precursors. […] After culture for 7 days with DPCPX, cells were stained for TRAP. Results are expressed as the mean±SEM of three cultures per variable. […] TRAP is preferentially expressed at high levels in osteoclasts and is considered, especially in the mouse, to be an osteoclast marker. After incubation, cells on wells were washed in PBS, fixed in 4% paraformaldehyde for 10 min, and stained for acid phosphatase in the presence of 0.3 M sodium tartrate (Sigma-Aldrich). The substrate used was napthol AS-BI phosphate (Sigma-Aldrich). Only those cells that were strongly TRAP-positive (dark red) and have more than 3 nuclei were counted by light microscopy. To determine at which stage DPCPX inhibits osteoclast differentiation, osteoclast precursors were incubated with M-CSF, RANKL and DPCPX was added on day 0, 3 and 6. After culture for a total of 7 days with DPCPX, TRAP-positive multinucleated cells were enumerated.
# [3] = M-CSF and DPCPX without RANKL (data not shown)
# [4] = increasing concentrations of DPCPX added day 0 with M-CSF and RANKL (30 ng/ml each), 7 days
# [5] = DPCPX 3 days (per FIG. 8 legend)
smiles,measurement,setting,value
"CCCn1c(=O)c2[nH]c(C3CCCC3)nc2n(CCC)c1=O [DPCPX, 8-cyclopentyl-1,3-dipropylxanthine]",osteoclast formation,"bone marrow cells; DPCPX 1 nM, 7 days",significantly inhibit
same,osteoclast formation,"bone marrow cells; DPCPX 1 μM, 7 days",complete inhibition
same,TRAP-positive cells in the absence of RANKL,bone marrow cells; [3],no TRAP-positive cells were seen
same,number of TRAP-positive cells,bone marrow cells; [4],strikingly inhibited the number of TRAP-positive cells in a dose-dependent manner
same,TRAF6 in the cell,TRAF6,is lost from the cell
same,c-Fos mRNA expression,c-Fos mRNA,does not affect
same,bone mass / trabecular bone volume (bone volume/total volume) following ovariectomy,[1],did not lose bone mass; also recorded: prevents ovariectomy-induced bone loss
same,cytoplasmic p50 and p65,[2]; [5],accumulate in the cytoplasm
same,nuclear translocation of p50 and p65,[2]; [5],totally prevents
same,RANKL-induced degradation of IκB,[2]; DPCPX treatment for 3 days (per FIG. 8 legend),inhibited
same,PU.1 mRNA expression,PU.1 mRNA,does not affect
same,osteoclast formation,"murine splenocytes; DPCPX 1 nM, 7 days",significantly inhibited
same,osteoclast formation,"murine splenocytes; DPCPX 1 μM, 7 days",almost complete inhibition
same,TRAP-positive cells in the absence of RANKL,murine splenocytes; [3],no TRAP-positive cells were seen
same,number of TRAP-positive multinucleated cells,murine splenocytes; [4],strikingly diminished the number of TRAP-positive multinucleated cells in a dose-dependent manner
same,osteoclast formation,"osteoclast precursors; DPCPX added on day 0, total culture 7 days",inhibited
same,osteoclast formation,"osteoclast precursors; DPCPX addition delayed (day 3, day 6), total culture 7 days",inhibition decreased
